Measured values taken from patent US20240300954A1, “NOVEL MODULATORS OF THE SIGMA-2 RECEPTOR AND THEIR METHOD OF USE” (Temple University-Of The Commonwealth System of Higher …, priority 2017, published 2024).

What follows are molecules tested against sigma-2 receptors (Homo sapiens, UniProt Q5BJF2) (assay: Radiolabel Binding Studies for the Sigma-2 Receptor (3H-DTG competition)). Details: 3H-DTG radioligand; membrane fractions of cells expressing recombinant sigma-2 receptors.
Description: A solution of the compound of the disclosure to be tested is prepared as a 1-mg/ml stock in Assay Buffer or DMSO according to its solubility. A similar stock of the reference compound Haloperidol is also prepared as a positive control. Eleven dilutions (5× assay concentration) of the compound of the disclosure and Haloperidol are prepared in the Assay Buffer by serial dilution to yield final corresponding assay concentrations ranging from 10 pM to 10 μM.
A stock concentration of 5 nM ^3H-1,3-di-(2-tolyl)guanidine (^3H-DTG) is prepared in 50 mM Tris-HCl, 10 mM MgCl2, 1 mM EDTA, pH 7.4 (Assay Buffer). Aliquots (50 μl) of radioligand are dispensed into the wells of a 96-well plate containing 100 μl of Assay Buffer. Duplicate 50 μl aliquots of the compound of the disclosure test and Haloperidol positive control reference compound serial dilutions are added.
Membrane fractions of cells expressing recombinant sigma-2 receptors (50 μL) are dispensed into each well. The membranes are prepared from stably tranfected cell lines expressing sigma-2 receptors cultured on 10-cm plates by harvesting PBS-rinsed monolayers, resuspending and lysing in chilled, hypotonic 50 mM Tris-HCl, pH 7.4, centrifuging at 20,000×g, decanting the supernatant and storing at −80° C.; the membrane preparations are resuspended in 3 ml of chilled Assay Buffer and homogenized by several passages through a 26 gauge needle before using in the assay.
The 250-μl reactions are incubated at room temperature for 1.5 hours, then harvested by rapid filtration onto 0.3% polyethyleneimine-treated, 96-well filter mats using a 96-well Filtermate harvester. Four rapid 500-μl washes are performed with chilled Assay Buffer to reduce non-specific binding. The filter mats are dried, then scintillant is added to the filters and the radioactivity retained on the filters is counted in a Microbeta scintillation counter.
Raw data (dpm) representing total radioligand binding (i.e., specific+non-specific binding) are plotted as a function of the logarithm of the molar concentration of the competitor (i.e., test or reference compound). Non-linear regression of the normalized (i.e., percent radioligand binding compared to that observed in the absence of test or reference compound) raw data is performed in Prism 4.0 (GraphPad Software) using the built-in three parameter logistic model describing ligand competition binding to radioligand-labeled sites:
[formula] • where bottom equals the residual radioligand binding measured in the presence of 10 μM reference compound (i.e., non-specific binding) and top equals the total radioligand binding observed in the absence of competitor. The log IC50 (i.e., the log of the ligand concentration that reduces radioligand binding by 50%) is thus estimated from the data and used to obtain the Ki by applying the Cheng-Prusoff approximation:
[formula] • where [ligand] equals the assay radioligand concentration and KD equals the affinity constant of the radioligand for the target receptor.

sigma-2 receptors, sequence (Q5BJF2 whole entry, looked up): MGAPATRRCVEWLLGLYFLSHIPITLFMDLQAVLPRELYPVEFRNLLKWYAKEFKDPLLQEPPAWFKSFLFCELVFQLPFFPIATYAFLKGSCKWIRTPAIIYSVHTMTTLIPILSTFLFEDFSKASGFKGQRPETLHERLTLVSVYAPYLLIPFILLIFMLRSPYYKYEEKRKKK

SMILES	IC50
CCC1(CC)CC(CCN2CC3CN(c4ccccc4)CC3C2)OC1=O (stereo not drawn) [Entry 1]	3.5 nM
CCC1(CC)CC(CCN2CC3CN(c4ccncc4)CC3C2)OC1=O (stereo not drawn) [Entry 2]	29 nM
O=C1OC(CCN2CC3CN(c4ccncc4)CC3C2)CC12CCCCC2 (stereo not drawn) [Entry 3]	39 nM
CCC1(CC)CC(CCN2CC3CN(c4ccccc4C(C)C)CC3C2)OC1=O (stereo not drawn) [Entry 4]	2 nM
CC(C)c1ccccc1N1CC2CN(CCC3CC4(CCCCC4)C(=O)O3)CC2C1 (stereo not drawn) [Entry 5]	2.4 nM
Cc1cnccc1N1CC2CN(CCC3CC4(CCCCC4)C(=O)O3)CC2C1 (stereo not drawn) [Entry 6]	3.9 nM
Cc1cc(N2CC3CN(CCC4CC5(CCCCC5)C(=O)O4)CC3C2)ccn1 (stereo not drawn) [Entry 7]	11 nM
Cc1cc(N2CC3CN(CCC4CC5(CCCCC5)C(=O)O4)CC3C2)cc(C)n1 (stereo not drawn) [Entry 8]	24 nM
O=C1OC(CCN2CC3(C2)CN(c2ccncc2)C3)CC12CCCCC2 (stereo not drawn) [Entry 9]	34 nM
CCC1(CC)CC(CCN2CC3(C2)CN(c2ccncc2)C3)OC1=O (stereo not drawn) [Entry 10]	59 nM
O=C1OC(CCN2CC3(C2)CN(c2ccccc2)C3)CC12CCCCC2 (stereo not drawn) [Entry 11]	30 nM
Cc1cnccc1N1CC2(CN(CCC3CC4(CCCCC4)C(=O)O3)C2)C1 (stereo not drawn) [Entry 12]	3.9 nM
Cc1cc(N2CC3(CN(CCC4CC5(CCCCC5)C(=O)O4)C3)C2)ccn1 (stereo not drawn) [Entry 13]	1.2 nM
Cc1cc(N2CC3(CN(CCC4CC5(CCCCC5)C(=O)O4)C3)C2)cc(C)n1 (stereo not drawn) [Entry 14]	1.5 nM
CCC1(CC)CC(CCN2CC3(C2)CN(c2ccccc2)C3)OC1=O (stereo not drawn) [Entry 15]	53 nM
CCC1(CC)CC(CCN2CC3CN(c4ccccc4C#N)CC3C2)OC1=O (stereo not drawn) [Entry 16]	6.8 nM
CCC1(CC)CC(CCN2CC3CN(c4cccc(C#N)c4)CC3C2)OC1=O (stereo not drawn) [Entry 17]	7 nM
CCC1(CC)CC(CCN2CC3CN(c4ccc(C#N)cc4)CC3C2)OC1=O (stereo not drawn) [Entry 18]	9.6 nM
CCC1(CC)CC(CCN2CC3CN(c4ccccc4OC)CC3C2)OC1=O (stereo not drawn) [Entry 19]	6.5 nM
CCC1(CC)CC(CCN2CC3CN(c4cccc(OC)c4)CC3C2)OC1=O (stereo not drawn) [Entry 20]	25 nM
CCC1(CC)CC(CCN2CC3CN(c4ccc(OC)cc4)CC3C2)OC1=O (stereo not drawn) [Entry 21]	22 nM
